N[C@@H](C(=O)O)c1ccc(O)cc1
Conditions	solubility (mole fraction)
in DMF, 278.27 K	1.99e-05
in DMF, 283.23 K	2.39e-05
in DMF, 288.18 K	2.67e-05
in DMF, 293.2 K	3.38e-05
in DMF, 298.39 K	4.03e-05
in DMF, 303.18 K	4.93e-05
in DMF, 308.26 K	6e-05
in DMF, 313.2 K	7.04e-05
in DMF, 318.39 K	8.68e-05
in DMF, 323.15 K	0.000102
in ethanol, 278.28 K	9.26e-05
in ethanol, 283.42 K	9.3e-05
in ethanol, 288.18 K	9.34e-05
in ethanol, 293.24 K	9.37e-05
in ethanol, 298.38 K	9.4e-05
in ethanol, 303.17 K	9.42e-05
in ethanol, 308.39 K	9.43e-05
in ethanol, 313.19 K	9.44e-05
in ethanol, 318.37 K	9.45e-05
in ethanol, 323.26 K	9.45e-05
in methanol, 278.17 K	0.00042
in methanol, 283.22 K	0.000421
in methanol, 288.21 K	0.000421
in methanol, 293.28 K	0.000423
in methanol, 298.24 K	0.000424
in methanol, 303.32 K	0.000425
in methanol, 308.2 K	0.000426
in methanol, 313.26 K	0.000427
in methanol, 318.27 K	0.000429
in methanol, 323.25 K	0.00043
in tetrachloromethane, 278.38 K	0.000225
in tetrachloromethane, 283.23 K	0.000227
in tetrachloromethane, 288.38 K	0.000231
in tetrachloromethane, 293.36 K	0.000234
in tetrachloromethane, 298.29 K	0.000239
in tetrachloromethane, 303.21 K	0.000244
in tetrachloromethane, 308.36 K	0.00025
in tetrachloromethane, 313.3 K	0.000258
in tetrachloromethane, 318.24 K	0.000264
in tetrachloromethane, 323.19 K	0.000272
in toluene, 278.28 K	0.000157
in toluene, 283.33 K	0.000164
in toluene, 288.38 K	0.000165
in toluene, 293.32 K	0.000172
in toluene, 298.23 K	0.000175
in toluene, 303.32 K	0.00018
in toluene, 308.39 K	0.000189
in toluene, 313.37 K	0.000195
in toluene, 318.17 K	0.000205
in toluene, 323.27 K	0.000216
in water, 278.27 K	0.0018
in water, 283.25 K	0.00186
in water, 288.37 K	0.00194
in water, 293.17 K	0.00203
in water, 298.26 K	0.00215
in water, 303.29 K	0.00229
in water, 308.26 K	0.00244
in water, 313.28 K	0.00261
in water, 318.17 K	0.00279
in water, 323.21 K	0.00299
